Values of other authors in patent US20210395200A1, “SYNTHETIC PROCESSES FOR THE PRODUCTION OF 1-((3S,4R)-4-(2,6-DIFLUORO-4-METHOXYPHENYL)-2-OXOPYRROLIDIN-3-YL)-3-PHENYLUREA” (BRISTOL-MYERS SQUIBB COMPANY, priority 2018, published 2021).

Target: T1, FPR2 (Homo sapiens, UniProt P25090)
T1 sequence (P25090 1-351): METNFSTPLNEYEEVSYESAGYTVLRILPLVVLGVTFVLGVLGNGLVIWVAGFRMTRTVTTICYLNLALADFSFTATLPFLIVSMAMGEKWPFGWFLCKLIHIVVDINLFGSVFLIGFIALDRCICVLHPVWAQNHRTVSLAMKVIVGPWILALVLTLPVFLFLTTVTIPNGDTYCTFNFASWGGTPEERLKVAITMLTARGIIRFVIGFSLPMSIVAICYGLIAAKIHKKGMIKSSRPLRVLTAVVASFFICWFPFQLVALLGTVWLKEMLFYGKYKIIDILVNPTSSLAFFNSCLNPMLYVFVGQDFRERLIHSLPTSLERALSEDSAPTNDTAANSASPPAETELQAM
Settings: background statement referring to U.S. Pat. No. 9,822,069

- FPR2 agonist activity: robust FPR2 agonist activity
Structure (SMILES): COc1cc(F)c([C@@H]2CNC(=O)[C@H]2NC(=O)Nc2ccccc2)c(F)c1 [Compound 1, 1-((3S,4R)-4-(2,6-difluoro-4-methoxyphenyl)-2-oxopyrrolidin-3-yl)-3-phenylurea]
